Results as given in the NIST ThermoML archive (doi:10.1016/j.jct.2011.11.004).
“And” between values parts separate entries of the source, which are not always exact repeats. Equal entries are not always repeated. ± gives the expanded uncertainty stated by the source.

Settings: Liquid, Transpiration method

CCN(CC)CCCN [N,N-diethylpropane-1,3-diamine]
Settings | vapor or sublimation pressure
277.2 K | 0.03765 ± 0.0016 kPa
279.1 K | 0.04448 ± 0.0019 kPa
280.2 K | 0.04785 ± 0.002 kPa
283.2 K | 0.06153 ± 0.0026 kPa
286.2 K | 0.07622 ± 0.0031 kPa
287.7 K | 0.08442 ± 0.0036 kPa
288.2 K | 0.09379 ± 0.0039 kPa
289.2 K | 0.09614 ± 0.0039 kPa
291.1 K | 0.1087 ± 0.0045 kPa and 0.1173 ± 0.0049 kPa
292.1 K | 0.1195 ± 0.0051 kPa
293.2 K | 0.1316 ± 0.0054 kPa
295.2 K | 0.1494 ± 0.0061 kPa and 0.1591 ± 0.0065 kPa
297.2 K | 0.17 ± 0.0093 kPa
297.3 K | 0.1835 ± 0.0077 kPa and 0.1811 ± 0.0076 kPa
297.4 K | 0.1872 ± 0.0079 kPa
297.5 K | 0.1799 ± 0.0083 kPa
298.2 K | 0.1935 ± 0.0078 kPa
299.4 K | 0.2021 ± 0.0084 kPa
299.5 K | 0.2132 ± 0.0088 kPa
301.2 K | 0.2397 ± 0.0099 kPa
303.1 K | 0.274 ± 0.011 kPa and 0.2527 ± 0.011 kPa
303.3 K | 0.2637 ± 0.011 kPa
305.1 K | 0.3138 ± 0.013 kPa

CN(C)CCCN(C)C [N,N,N',N'-tetramethyl-1,3-propanediamine]
Settings | vapor or sublimation pressure
273.5 K | 0.1509 ± 0.0059 kPa and 0.1417 ± 0.0065 kPa
274.2 K | 0.1541 ± 0.0062 kPa
275 K | 0.1633 ± 0.0068 kPa
275.6 K | 0.1714 ± 0.007 kPa
276.1 K | 0.1754 ± 0.0072 kPa
276.6 K | 0.1837 ± 0.0078 kPa
277.1 K | 0.191 ± 0.0078 kPa
278.4 K | 0.2056 ± 0.0083 kPa
279.2 K | 0.2168 ± 0.0092 kPa
281.1 K | 0.2546 ± 0.01 kPa
283.4 K | 0.2873 ± 0.012 kPa and 0.3004 ± 0.012 kPa
285.8 K | 0.3528 ± 0.015 kPa
287.6 K | 0.4012 ± 0.017 kPa
289 K | 0.455 ± 0.019 kPa
294.3 K | 0.6329 ± 0.025 kPa
295.7 K | 0.6783 ± 0.027 kPa
299.2 K | 0.8136 ± 0.033 kPa and 0.8194 ± 0.033 kPa
300.8 K | 0.9386 ± 0.039 kPa
304.3 K | 1.143 ± 0.046 kPa
305.8 K | 1.227 ± 0.049 kPa and 1.226 ± 0.049 kPa
309.1 K | 1.435 ± 0.058 kPa
310.8 K | 1.654 ± 0.067 kPa
310.9 K | 1.663 ± 0.068 kPa
315.6 K | 2.117 ± 0.086 kPa and 2.069 ± 0.084 kPa and 2.116 ± 0.086 kPa
323.1 K | 3.214 ± 0.13 kPa

CN(C)CCCN [N,N-dimethyl-1,3-propanediamine]
Settings | vapor or sublimation pressure
273.5 K | 0.1753 ± 0.0075 kPa
273.8 K | 0.1802 ± 0.0078 kPa
274.2 K | 0.1875 ± 0.0081 kPa
275.8 K | 0.2076 ± 0.0085 kPa
275.9 K | 0.2029 ± 0.0083 kPa
276.4 K | 0.2181 ± 0.0093 kPa
277.8 K | 0.2407 ± 0.011 kPa
278.1 K | 0.2481 ± 0.011 kPa
278.4 K | 0.2539 ± 0.011 kPa
281.1 K | 0.2962 ± 0.015 kPa
281.4 K | 0.3109 ± 0.016 kPa
283.4 K | 0.3594 ± 0.015 kPa and 0.3558 ± 0.015 kPa and 0.3618 ± 0.015 kPa
285.8 K | 0.4176 ± 0.021 kPa
286.2 K | 0.4454 ± 0.022 kPa
288.1 K | 0.5012 ± 0.02 kPa and 0.4936 ± 0.02 kPa
288.7 K | 0.5167 ± 0.021 kPa
288.8 K | 0.5086 ± 0.021 kPa
289.2 K | 0.5356 ± 0.025 kPa and 0.538 ± 0.025 kPa
291.7 K | 0.628 ± 0.025 kPa
292.1 K | 0.6355 ± 0.027 kPa and 0.6539 ± 0.027 kPa
293 K | 0.6977 ± 0.029 kPa
294.9 K | 0.7794 ± 0.036 kPa
295.2 K | 0.8075 ± 0.036 kPa
296.9 K | 0.8821 ± 0.035 kPa
297.8 K | 0.9313 ± 0.039 kPa
298.2 K | 0.981 ± 0.04 kPa
298.9 K | 1.011 ± 0.041 kPa
299.7 K | 1.058 ± 0.043 kPa

CNCCCN [N-methyl-1,3-diaminopropane]
Settings | vapor or sublimation pressure [kPa]
276.2 K | 0.09113 ± 0.0039
279.3 K | 0.1163 ± 0.0049
282.3 K | 0.1481 ± 0.0062
285.2 K | 0.1855 ± 0.0077
288.2 K | 0.2287 ± 0.0096
291.2 K | 0.2973 ± 0.012
292.7 K | 0.3328 ± 0.014
294.1 K | 0.3667 ± 0.015
297.1 K | 0.4634 ± 0.019
298.8 K | 0.5298 ± 0.022
300.2 K | 0.5889 ± 0.024
303.2 K | 0.7223 ± 0.029
